# Measurements reported in ChEMBL document CHEMBL5523713, “Development of novel N-aryl-2,4-bithiazole-2-amine-based CYP1B1 degraders for reversing drug resistance” (Eur J Med Chem, 2024).
# Calls of active or inactive are those of the source. The rule behind the calls is not given here.
# Columns and labels:
# A549/TR [1] = experiment: Effect on total FAK protein level in human A549/Taxol cells at 0.1 to 10 nM incubated for 24 hrs by Western blotting analysis; format: functional, cell-based; details: dose 0.1-10 nM
# A549/TR [2] = experiment: Inhibition of epithelial-to-mesenchymal transition in human A549/Taxol cells assessed as downregulation of vimentin protein expression at 0.1 to 10 nM incubated for 24 hrs by immunoblot analysis; format: functional, cell-based; details: dose 0.1-10 nM
# [3] = target: T1, von Hippel-Lindau disease tumor suppressor/Cytochrome P450 1B1 (Homo sapiens, UniProt Q16678+P40337); experiment: PROTAC activity at VHL/CYP1B1 in human A549/Taxol cells assessed as reduction in CYP1B1 level incubated for 24 hrs by Western blotting analysis; format: ADME, cell-based
# [4] = target: T1, von Hippel-Lindau disease tumor suppressor/Cytochrome P450 1B1; experiment: PROTAC activity at VHL/CYP1B1 in human A549/Taxol cells assessed as degradation by measuring fold change in remaining CYP1B1 level at 1000 nM incubated for 24 hrs by Western blotting analysis (reference value: 1); format: ADME, cell-based; details: 1 µM
# [5] = target: Focal adhesion kinase 1 (Homo sapiens) (UniProt Q05397); experiment: Inhibition of FAK phosphorylation in human A549/Taxol cells at 0.1 to 10 nM incubated for 24 hrs by Western blotting analysis; format: cell-based; details: dose 0.1-10 nM
# A549/TR [6] = experiment: Reversal of taxol resistance in human A549/Taxol cells assessed as decrease in cell viability at 1 to 10 nM incubated for 48 to 72 hrs by MTT assay; format: functional, cell-based; details: dose 1-10 nM, time 48-72 hrs
# A549/TR [7] = experiment: Reversal of taxol resistance in human A549/Taxol cells assessed as decrease in cell viability at 0.1 nM incubated for 48 to 72 hrs by MTT assay; format: functional, cell-based; details: time 48-72 hrs
# [8] = target: T1, von Hippel-Lindau disease tumor suppressor/Cytochrome P450 1B1; experiment: PROTAC activity at VHL/CYP1B1 in human A549/Taxol cells assessed as reduction in CYP1B1 level at 1 nM incubated for 24 hrs by Western blotting analysis; format: ADME, cell-based; design: scale not given: the % may be the effect or the level left; details: 0.001 µM
# A549/TR [9] = experiment: Effect on total SRC protein level in human A549/Taxol cells incubated for 24 hrs by Western blotting analysis; format: functional, cell-based; details: dose 0.1-10 nM
# A549/TR [10] = experiment: Inhibition of epithelial-to-mesenchymal transition in human A549/Taxol cells assessed as downregulation of N-cadherin protein expression at 0.1 to 10 nM incubated for 24 hrs by immunoblot analysis; format: functional, cell-based; details: dose 0.1-10 nM
# [11] = target: T1, von Hippel-Lindau disease tumor suppressor/Cytochrome P450 1B1; experiment: PROTAC activity at VHL/CYP1B1 in human A549/Taxol cells assessed as reduction in CYP1B1 level at 10 nM incubated for 24 hrs by Western blotting analysis; format: ADME, cell-based; design: scale not given: the % may be the effect or the level left; details: 0.01 µM
# Cytochrome P450 1B1 = target: T2, Cytochrome P450 1B1 (Homo sapiens, UniProt Q16678); experiment: Inhibition of recombinant human CYP1B1 using 7-ethyl-O-resorufin as substrate incubated for 30 mins in presence of NADPH by EROD assay; format: ADME
# T2 sequence (Q16678 whole entry): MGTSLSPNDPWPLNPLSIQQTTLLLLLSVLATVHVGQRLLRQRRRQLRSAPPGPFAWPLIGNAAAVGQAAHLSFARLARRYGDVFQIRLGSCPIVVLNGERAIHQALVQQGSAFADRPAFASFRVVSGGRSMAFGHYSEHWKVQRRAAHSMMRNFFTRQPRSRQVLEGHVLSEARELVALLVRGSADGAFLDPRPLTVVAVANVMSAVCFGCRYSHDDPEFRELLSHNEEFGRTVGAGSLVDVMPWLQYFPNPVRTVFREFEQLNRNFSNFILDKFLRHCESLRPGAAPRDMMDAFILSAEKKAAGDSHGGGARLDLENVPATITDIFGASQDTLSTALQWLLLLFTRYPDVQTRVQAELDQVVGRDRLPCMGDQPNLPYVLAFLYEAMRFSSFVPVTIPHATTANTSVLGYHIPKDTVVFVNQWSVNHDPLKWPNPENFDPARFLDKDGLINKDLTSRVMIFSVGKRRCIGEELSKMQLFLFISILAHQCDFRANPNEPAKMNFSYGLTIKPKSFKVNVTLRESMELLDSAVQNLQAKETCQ
# A549/TR [12] = experiment: Inhibition of epithelial-to-mesenchymal transition in human A549/Taxol cells assessed as upregulation of E-cadherin protein expression at 0.1 to 10 nM incubated for 24 hrs by immunoblot analysis; format: functional, cell-based; details: dose 0.1-10 nM
# [13] = target: T1, von Hippel-Lindau disease tumor suppressor/Cytochrome P450 1B1; experiment: PROTAC activity at VHL/CYP1B1 in human A549/Taxol cells assessed as degradation by measuring fold change in remaining CYP1B1 level at 1 nM incubated for 24 hrs by Western blotting analysis (reference value: 1); format: ADME, cell-based; details: 0.001 µM
# A549/TR [14] = experiment: Downregulation of P-glycoprotein expression in human A549/Taxol cells at 0.1 to 10 nM by Western blotting analysis; format: functional, cell-based; details: dose 0.1-10 nM
# A549/TR [15] = experiment: Inhibition of cell migration in human A549/Taxol cells incubated for 48 hrs by wound healing assay; format: functional, cell-based; details: dose 0.1-10 nM
# A549/TR [16] = experiment: Effect on paxillin protein level in human A549/Taxol cells at 0.1 to 10 nM incubated for 24 hrs by Western blotting analysis; format: functional, cell-based; details: dose 0.1-10 nM
# [17] = target: Proto-oncogene tyrosine-protein kinase Src (Homo sapiens) (UniProt P12931); experiment: Inhibition of SRC phosphorylation in human A549/Taxol cells incubated for 24 hrs by Western blotting analysis; format: cell-based; details: dose 0.1-10 nM
# [18] = target: von Hippel-Lindau disease tumor suppressor/Cytochrome P450 1A1 (Homo sapiens, UniProt P04798+P40337); experiment: PROTAC activity at VHL/CYP1A1 (unknown origin); format: ADME, protein assay
# A549/TR [19] = experiment: Inhibition of cell invasion in human A549/Taxol cells at 0.1 to 10 nM incubated for 24 hrs by crystal violet staining based transwell assay; format: functional; details: dose 0.1-10 nM
# [20] = target: T1, von Hippel-Lindau disease tumor suppressor/Cytochrome P450 1B1; experiment: PROTAC activity at VHL/CYP1B1 in human A549/Taxol cells assessed as reduction in CYP1B1 level at 10 nM incubated for 1 hr by Western blotting analysis; format: ADME, cell-based; details: 0.01 µM
# [21] = target: T1, von Hippel-Lindau disease tumor suppressor/Cytochrome P450 1B1; experiment: PROTAC activity at VHL/CYP1B1 in human A549/Taxol cells assessed as reduction in CYP1B1 level at 1000 nM incubated for 24 hrs by Western blotting analysis; format: ADME, cell-based; design: scale not given: the % may be the effect or the level left; details: 1 µM
# A549/TR [22] = experiment: Reversal of taxol resistance in human A549/Taxol cells assessed as decrease in cell viability at 0.1 to 10 nM incubated for 48 to 72 hrs by MTT assay; format: functional, cell-based; details: dose 0.1-10 nM, time 48-72 hrs
# [23] = target: T1, von Hippel-Lindau disease tumor suppressor/Cytochrome P450 1B1; experiment: PROTAC activity at VHL/CYP1B1 in human A549/Taxol cells assessed as reduction in CYP1B1 level by Western blotting analysis; format: ADME, cell-based
# [24] = target: T1, von Hippel-Lindau disease tumor suppressor/Cytochrome P450 1B1; experiment: PROTAC activity at VHL/CYP1B1 in human A549/Taxol cells assessed as degradation by measuring fold change in remaining CYP1B1 level incubated for 24 hrs by Western blotting analysis (reference value: 1); format: ADME, cell-based
# [25] = target: T1, von Hippel-Lindau disease tumor suppressor/Cytochrome P450 1B1; experiment: PROTAC activity at VHL/CYP1B1 in human A549/Taxol cells assessed as reduction in CYP1B1 level at 100 nM incubated for 24 hrs by Western blotting analysis; format: ADME, cell-based; details: 0.1 µM
# [26] = target: Protein cereblon/Cytochrome P450 1B1 (Homo sapiens, UniProt Q16678+Q96SW2); experiment: PROTAC activity at CRBN/CYP1B1 in human A549/Taxol cells assessed as degradation by measuring fold change in remaining CYP1B1 level incubated for 24 hrs by Western blotting analysis (reference value: 1); format: ADME, cell-based
# Cytochrome P450 1A2 = target: T3, Cytochrome P450 1A2 (Homo sapiens, UniProt P05177); experiment: Inhibition of recombinant human CYP1A2 using 7-ethyl-O-resorufin as substrate incubated for 30 mins in presence of NADPH by EROD assay; format: ADME
# T3 sequence (P05177 whole entry): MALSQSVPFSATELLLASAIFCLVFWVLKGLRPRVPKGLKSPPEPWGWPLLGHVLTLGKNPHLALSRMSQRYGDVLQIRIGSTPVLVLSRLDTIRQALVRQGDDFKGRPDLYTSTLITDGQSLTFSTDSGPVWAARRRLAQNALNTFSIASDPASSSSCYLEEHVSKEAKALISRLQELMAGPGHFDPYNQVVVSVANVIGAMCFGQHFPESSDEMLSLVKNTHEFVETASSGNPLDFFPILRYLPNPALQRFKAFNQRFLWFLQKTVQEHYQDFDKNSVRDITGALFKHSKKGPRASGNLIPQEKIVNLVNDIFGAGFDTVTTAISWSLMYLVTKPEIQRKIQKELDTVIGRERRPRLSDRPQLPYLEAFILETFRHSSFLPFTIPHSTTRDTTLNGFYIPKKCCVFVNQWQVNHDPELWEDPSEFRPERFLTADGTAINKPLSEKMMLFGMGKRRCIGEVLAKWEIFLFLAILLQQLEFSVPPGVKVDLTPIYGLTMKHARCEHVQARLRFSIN
# Cytochrome P450 1A1 = target: T4, Cytochrome P450 1A1 (Homo sapiens, UniProt P04798); experiment: Inhibition of recombinant human CYP1A1 using 7-ethyl-O-resorufin as substrate incubated for 30 mins in presence of NADPH by EROD assay; format: ADME
# T4 sequence (P04798 whole entry): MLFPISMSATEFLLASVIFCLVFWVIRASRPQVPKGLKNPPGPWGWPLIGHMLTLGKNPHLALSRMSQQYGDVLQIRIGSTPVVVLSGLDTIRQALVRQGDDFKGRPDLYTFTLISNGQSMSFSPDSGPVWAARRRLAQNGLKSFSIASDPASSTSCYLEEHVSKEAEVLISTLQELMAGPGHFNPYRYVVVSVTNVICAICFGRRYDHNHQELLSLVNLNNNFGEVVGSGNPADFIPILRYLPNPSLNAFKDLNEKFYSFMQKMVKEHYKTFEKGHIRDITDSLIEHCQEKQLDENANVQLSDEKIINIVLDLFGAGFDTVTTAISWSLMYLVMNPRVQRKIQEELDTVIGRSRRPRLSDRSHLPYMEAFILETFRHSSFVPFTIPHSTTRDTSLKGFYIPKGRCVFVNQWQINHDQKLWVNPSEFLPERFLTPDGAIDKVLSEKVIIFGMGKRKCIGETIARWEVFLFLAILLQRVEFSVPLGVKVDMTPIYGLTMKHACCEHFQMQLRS
# A549/TR [27] = experiment: Inhibition of epithelial-to-mesenchymal transition in human A549/Taxol cells assessed as reduction in CYP1B1 expression at 0.1 to 10 nM incubated for 24 hrs by immunoblot analysis; format: functional, cell-based; details: dose 0.1-10 nM
# [28] = target: Proto-oncogene tyrosine-protein kinase Src (Homo sapiens) (UniProt P12931); experiment: Inhibition of SRC phosphorylation in human A549/Taxol cells at 0.1 to 10 nM incubated for 24 hrs by Western blotting analysis; format: cell-based; details: dose 0.1-10 nM
# A549/TR [29] = experiment: Inhibition of cell migration in human A549/Taxol cells at 0.1 to 10 nM incubated for 48 hrs by wound healing assay; format: functional, cell-based; details: dose 0.1-10 nM
# T1 sequence (P40337 whole entry, one chain of several): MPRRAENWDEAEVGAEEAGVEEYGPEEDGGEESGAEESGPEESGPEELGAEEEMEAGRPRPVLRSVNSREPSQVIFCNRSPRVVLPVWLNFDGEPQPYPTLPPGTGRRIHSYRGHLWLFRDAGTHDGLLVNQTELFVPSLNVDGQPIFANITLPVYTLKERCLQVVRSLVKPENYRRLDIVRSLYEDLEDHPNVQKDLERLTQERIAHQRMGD
# Proto-oncogene tyrosine-protein kinase Src (Homo sapiens), sequence (P12931 2-536 limits assumed): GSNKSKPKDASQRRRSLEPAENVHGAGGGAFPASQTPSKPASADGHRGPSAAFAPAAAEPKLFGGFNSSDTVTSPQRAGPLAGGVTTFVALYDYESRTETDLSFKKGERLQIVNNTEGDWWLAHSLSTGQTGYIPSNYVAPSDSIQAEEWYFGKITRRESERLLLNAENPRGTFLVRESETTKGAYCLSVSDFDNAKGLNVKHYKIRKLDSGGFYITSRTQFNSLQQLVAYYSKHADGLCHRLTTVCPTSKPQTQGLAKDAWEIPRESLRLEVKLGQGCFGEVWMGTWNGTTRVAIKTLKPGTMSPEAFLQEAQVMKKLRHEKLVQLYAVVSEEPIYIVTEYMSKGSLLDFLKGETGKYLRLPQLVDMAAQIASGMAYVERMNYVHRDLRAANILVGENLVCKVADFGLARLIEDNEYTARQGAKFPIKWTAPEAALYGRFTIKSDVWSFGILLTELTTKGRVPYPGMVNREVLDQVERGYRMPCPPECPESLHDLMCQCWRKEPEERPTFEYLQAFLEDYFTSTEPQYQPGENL
# von Hippel-Lindau disease tumor suppressor/Cytochrome P450 1A1, sequence (P40337 whole entry, one chain of several): as the sequence (P40337 whole entry, one chain of several) above
# Protein cereblon/Cytochrome P450 1B1, sequence (Q96SW2 whole entry, one chain of several): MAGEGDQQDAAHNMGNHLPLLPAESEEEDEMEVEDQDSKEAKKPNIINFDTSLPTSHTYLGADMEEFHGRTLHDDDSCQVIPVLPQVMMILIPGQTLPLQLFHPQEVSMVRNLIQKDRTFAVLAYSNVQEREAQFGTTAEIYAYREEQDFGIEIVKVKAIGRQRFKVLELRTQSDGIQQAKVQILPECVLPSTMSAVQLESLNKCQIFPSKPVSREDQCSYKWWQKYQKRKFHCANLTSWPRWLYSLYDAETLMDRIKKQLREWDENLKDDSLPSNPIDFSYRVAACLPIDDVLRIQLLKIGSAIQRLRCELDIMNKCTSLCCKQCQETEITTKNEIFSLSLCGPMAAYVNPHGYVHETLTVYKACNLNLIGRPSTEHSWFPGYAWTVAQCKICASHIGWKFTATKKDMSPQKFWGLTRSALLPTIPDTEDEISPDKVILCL
# Focal adhesion kinase 1 (Homo sapiens), sequence (Q05397 2-1052 limits assumed): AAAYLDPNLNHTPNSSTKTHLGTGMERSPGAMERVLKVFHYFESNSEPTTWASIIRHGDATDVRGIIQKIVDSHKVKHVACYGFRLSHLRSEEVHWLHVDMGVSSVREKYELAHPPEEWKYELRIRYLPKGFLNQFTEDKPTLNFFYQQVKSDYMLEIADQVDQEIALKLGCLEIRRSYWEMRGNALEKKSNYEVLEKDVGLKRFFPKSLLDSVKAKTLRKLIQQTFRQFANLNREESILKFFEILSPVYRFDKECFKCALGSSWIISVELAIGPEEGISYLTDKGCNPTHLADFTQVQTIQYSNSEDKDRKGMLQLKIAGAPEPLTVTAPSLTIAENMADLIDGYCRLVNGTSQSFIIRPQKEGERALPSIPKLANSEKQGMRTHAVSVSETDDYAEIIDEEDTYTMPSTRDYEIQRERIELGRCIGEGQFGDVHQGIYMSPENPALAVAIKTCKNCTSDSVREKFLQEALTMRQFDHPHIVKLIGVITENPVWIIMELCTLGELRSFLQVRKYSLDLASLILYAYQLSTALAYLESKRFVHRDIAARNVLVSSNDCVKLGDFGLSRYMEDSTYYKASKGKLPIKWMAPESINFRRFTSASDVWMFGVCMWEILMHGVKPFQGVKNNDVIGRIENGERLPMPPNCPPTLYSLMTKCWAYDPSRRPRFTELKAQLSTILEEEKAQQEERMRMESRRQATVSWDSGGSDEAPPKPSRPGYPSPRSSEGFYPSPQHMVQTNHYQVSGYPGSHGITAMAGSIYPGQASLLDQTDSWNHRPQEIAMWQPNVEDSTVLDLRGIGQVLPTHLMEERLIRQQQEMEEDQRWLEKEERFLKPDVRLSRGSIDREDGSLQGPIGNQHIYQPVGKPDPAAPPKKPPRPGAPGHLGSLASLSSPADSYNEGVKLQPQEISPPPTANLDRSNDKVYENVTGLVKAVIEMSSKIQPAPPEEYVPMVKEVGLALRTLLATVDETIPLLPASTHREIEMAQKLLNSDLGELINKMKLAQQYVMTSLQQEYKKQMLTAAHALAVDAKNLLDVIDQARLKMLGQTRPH
structure (smiles),measurement,setting,value
Cc1ncsc1-c1ccc([C@H](C)NC(=O)[C@@H]2C[C@@H](O)CN2C(=O)[C@@H](NC(=O)CCCCCCOc2ccccc2-c2csc(-c3csc(Nc4ccc(Cl)cc4)n3)n2)C(C)(C)C)cc1,Activity,A549/TR [1],inactive
same,inhibition,A549/TR [2],Active
same,DC50,[3],0.1 nM
same,fold change (FC),[4],0.6
same,inhibition,[5],Active
same,Activity,A549/TR [6],Active
same,Activity,A549/TR [7],Active
same,Activity,[8],50%
same,Activity,A549/TR [9],Dose-Dependent Effect
same,inhibition,A549/TR [10],Active
same,Activity,[11],80%
same,inhibition (INH),"Cytochrome P450 1B1; human, recombinant enzyme, 0.5 h, time 30 min",Active
same,inhibition,A549/TR [12],Active
same,fold change (FC),[13],0.5
same,Activity,A549/TR [14],Active
same,inhibition,A549/TR [15],Dose-Dependent Effect
same,Activity,A549/TR [16],Active
same,inhibition,[17],Active
same,Activity,[18],Not Active
same,inhibition,A549/TR [19],Active
same,Activity,[20],Active
same,Activity,[21],60%
Clc1ccc(Nc2nc(-c3nc(-c4ccccc4)cs3)cs2)cc1,Activity,A549/TR [22],inactive
same,Activity,[23],Not Active
same,fold change (FC),[24],1
same,Activity,[25],Not Active
same,fold change (FC),[26],0.8
same,IC50,Cytochrome P450 1B1,11.9 nM
same,IC50,Cytochrome P450 1A2,3910 nM
same,IC50,Cytochrome P450 1A1,279 nM
same,inhibition,A549/TR [27],inactive
same,Activity,A549/TR [14],inactive
same,Activity,A549/TR [16],Active
same,inhibition,[28],Active
same,inhibition,A549/TR [29],inactive
